Test results from patent US20230398234A1, “NOVEL FUNGAL COMPOIND FORMULATIONS AND THEIR THERAPEUTIC METHODS OF USE” (priority 2020, published 2023).

Conditions: UPLC quantification of cordycepin; variable mass ratios; FIG. 2

Nc1ncnc2c1ncn2[C@@H]1O[C@H](CO)C[C@H]1O [Cordycepin, 3′-deoxyadenosine]
solubility of Cordycepin in Cordyceps extract, TPGS solution vs pure water: did not increase the solubility
